Source: patent US10092551B2, “Spiro-thiazolones” (Hoffmann-La Roche Inc., priority 2014, dated 2018)
Counter-ions that a name gives are not always drawn.

Molecular target: human V1a receptor (Homo sapiens (Human), UniProt P37288)
Assay: human V1a receptor binding studies (3H-Vasopressin, SPA beads)
Conditions: membranes of HEK293 cells transiently transfected with human V1a receptor, Ki by Cheng-Prussoff
Experimental: The human V1a receptor was cloned by RT-PCR from total human liver RNA. The coding sequence was subcloned in an expression vector after sequencing to confirm the identity of the amplified sequence. […] Cell membranes were prepared from HEK293 cells transiently transfected with the expression vector and grown in 20 liter fermenters with the following protocol.
50 g of cells are re-suspended in 30 ml freshly prepared ice cold Lysis buffer (50 mM HEPES, 1 mM EDTA, 10 mM MgCl2 adjusted to pH=7.4+complete cocktail of protease inhibitor (Roche Diagnostics)). Homogenized with Polytron for 1 min and sonicated on ice for 2×2 minutes at 80% intensity (Vibracell sonicator). The preparation is centrifuged 20 min at 500 g at 4° C., the pellet is discarded and the supernatant centrifuged 1 hour at 43,000 g at 4° C. (19,000 rpm). The pellet is re-suspended in 12.5 ml Lysis buffer+12.5 ml Sucrose 20% and homogenized using a Polytron for 1-2 min. The protein concentration is determined by the Bradford method and aliquots are stored at −80° C. until use. For binding studies 60 mg Yttrium silicate SPA beads (Amersham) are mixed with an aliquot of membrane in binding buffer (50 mM Tris, 120 mM NaCl, 5 mM KCl, 2 mM CaCl2, 10 mM MgCl2) for 15 minutes with mixing. 50 μl of bead/membrane mixture is then added to each well of a 96 well plate, followed by 50 μl of 4 nM 3H-Vasopressin (American Radiolabeled Chemicals). For total binding measurement 100 μl of binding buffer are added to the respective wells, for non-specific binding 100 μl of 8.4 mM cold vasopressin and for compound testing 100 μl of a serial dilution of each compound in 2% DMSO. The plate is incubated 1 h at room temperature, centrifuged 1 min at 1000 g and counted on a Packard Top-Count. Non-specific binding counts are subtracted from each well and data is normalized to the maximum specific binding set at 100%. To calculate an IC 50 the curve is fitted using a non-linear regression model (XLfit) and the Ki is calculated using the Cheng-Prussoff equation.

Sequence of human V1a receptor (P37288 whole entry): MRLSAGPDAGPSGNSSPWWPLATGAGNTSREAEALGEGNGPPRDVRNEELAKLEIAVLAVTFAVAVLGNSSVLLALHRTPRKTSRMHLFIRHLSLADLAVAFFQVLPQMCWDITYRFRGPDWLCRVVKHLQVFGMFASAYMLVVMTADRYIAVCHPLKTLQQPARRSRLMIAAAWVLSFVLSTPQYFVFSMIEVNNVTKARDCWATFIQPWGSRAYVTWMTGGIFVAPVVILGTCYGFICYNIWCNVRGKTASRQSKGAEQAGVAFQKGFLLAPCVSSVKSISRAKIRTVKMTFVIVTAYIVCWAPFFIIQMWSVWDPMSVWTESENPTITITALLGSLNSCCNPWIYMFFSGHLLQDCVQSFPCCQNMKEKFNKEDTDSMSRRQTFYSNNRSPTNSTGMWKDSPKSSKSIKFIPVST

Structure (SMILES)	pKi hV1a
O=C1N=C(N2CCC3(CC2)OCc2ccccc23)S/C1=C1/CCc2cc(O)ccc21 [Example 54, (5E/Z)-5-(5-hydroxy-2,3-dihydro-1H-inden-1-ylidene)-2-(1′H,3H-spiro[2-benzofuran-1,4′-piperidin]-1′-yl)-1,3-thiazol-4(5H)-one]	7.5
CC(=O)OCC(COC(C)=O)=C1SC(N2CCC3(CC2)OCc2ccccc23)=NC1=O [Example 72, 2-[4-oxo-2-(1′H,3H-spiro[2-benzofuran-1,4′-piperidin]-1′-yl)-1,3-thiazol-5(4H)-ylidene]propane-1,3-diyl diacetate]	8.3
CC(=C1SC(N2CCC3(CC2)OCc2ccccc23)=NC1=O)c1c(C)noc1C (stereo in doubt) [Example 105, (5E)-5-[1-(3,5-dimethyl-1,2-oxazol-4-yl)ethylidene]-2-(1′H,3H-spiro[2-benzofuran-1,4′-piperidin]-1′-yl)-1,3-thiazol-4(5H)-one]	8.7
CC(C)(C)[Si](C)(C)OC/C(=C1\SC(N2CCC3(CC2)OC(=O)c2ccccc23)=NC1=O)c1ccc(Cl)nc1 [Example 146, 1′-{(5Z)-5-[2-{[tert-butyl(dimethyl)silyl]oxy}-1-(6-chloropyridin-3-yl)ethylidene]-4-oxo-4,5-dihydro-1,3-thiazol-2-yl}-3H-spiro[2-benzofuran-1,4′-piperidin]-3-one]	7.3
C/C(=C1\SC(N2CCC3(CC2)OCc2ccccc23)=NC1=O)c1ccccc1F [Example 56, (5E)-5-[1-(2-fluorophenyl)ethylidene]-2-(1′H,3H-spiro[2-benzofuran-1,4′-piperidin]-1′-yl)-1,3-thiazol-4(5H)-one]	8.3
CC(C)(C)OC(=O)N1CCC(=C2SC(N3CCC4(CC3)OCc3ccccc34)=NC2=O)CC1 [Example 41, tert-butyl 4-[4-oxo-2-(1′H,3H-spiro[2-benzofuran-1,4′-piperidin]-1′-yl)-1,3-thiazol-5(4H)-ylidene]piperidine-1-carboxylate]	7.6
C/C(=C1/SC(N2CCC3(CC2)OCc2ccccc23)=NC1=O)c1ccc(Cl)nc1 [Example 96, (5Z)-5-[1-(6-chloropyridin-3-yl)ethylidene]-2-(1′H,3H-spiro[2-benzofuran-1,4′-piperidin]-1′-yl)-1,3-thiazol-4(5H)-one]	9.4
O=C1N=C(N2CCC3(CC2)OCc2ccccc23)SC1=C1c2ccccc2Oc2ccccc21 [Example 103, 2-(1′H,3H-spiro[2-benzofuran-1,4′-piperidin]-1′-yl)-5-(9H-xanthen-9-ylidene)-1,3-thiazol-4(5H)-one]	8.6
O=C1N=C(N2CCC3(CC2)OCc2ccccc23)S/C1=C1/CCNC(=O)c2cc(Cl)ccc21 [Example 67, (5E/Z)-8-chloro-5-[4-oxo-2-(1′H,3H-spiro[2-benzofuran-1,4′-piperidin]-1′-yl)-1,3-thiazol-5(4H)-ylidene]-2,3,4,5-tetrahydro-1H-2-benzazepin-1-one]	8.7
O=C1N=C(N2CCC3(CC2)OCc2ccccc23)S/C1=C(/CO)c1ccccc1 [Example 124, (5E)-5-(2-hydroxy-1-phenylethylidene)-2-(1′H,3H-spiro[2-benzofuran-1,4′-piperidin]-1′-yl)-1,3-thiazol-4(5H)-one]	9.3
COC1CCCC/C1=C1/SC(N2CCC3(CC2)OCc2ccccc23)=NC1=O (centres unmarked) [Example 73, (5E/Z)-5-(2-methoxycyclohexylidene)-2-(1′H,3H-spiro[2-benzofuran-1,4′-piperidin]-1′-yl)-1,3-thiazol-4(5H)-one]	8.8
O=C1N=C(N2CCC3(CC2)OCc2ccccc23)SC1=C(c1ccccn1)c1ccccn1 [Example 110, 5-[di(pyridin-2-yl)methylidene]-2-(1′H,3H-spiro[2-benzofuran-1,4′-piperidin]-1′-yl)-1,3-thiazol-4(5H)-one]	7.6
COCC(COC)=C1SC(N2CCC3(CC2)OCc2ncccc23)=NC1=O [Example 163, 5-(1,3-dimethoxypropan-2-ylidene)-2-(1′H,7H-spiro[furo[3,4-b]pyridine-5,4′-piperidin]-1′-yl)-1,3-thiazol-4(5H)-one]	7.0
CS(=O)(=O)N1CCC(=C2SC(N3CCC4(CC3)OCc3ccccc34)=NC2=O)CC1 [Example 68, 5-[1-(methylsulfonyl)piperidin-4-ylidene]-2-(1′H,3H-spiro[2-benzofuran-1,4′-piperidin]-1′-yl)-1,3-thiazol-4(5H)-one]	7.7
O=C1N=C(N2CCC3(CC2)OCc2ccccc23)S/C1=C1/CCCc2ccc(Cl)cc21 [Example 20, (5E/Z)-5-(7-chloro-3,4-dihydronaphthalen-1 (2H)-ylidene)-2-(1′H,3H-spiro[2-benzofuran-1,4′-piperidin]-1′-yl)-1,3-thiazol-4(5H)-one]	9.0
C/C(=C1\SC(N2CCC3(CC2)OCc2ccccc23)=NC1=O)c1ccc(C)nc1 [Example 153, (5E)-5-[1-(6-methylpyridin-3-yl)ethylidene]-2-(1′H,3H-spiro[2-benzofuran-1,4′-piperidin]-1′-yl)-1,3-thiazol-4(5H)-one]	8.3
O=C1N=C(N2CCC3(CC2)OCc2ccccc23)SC1=C(c1ccccc1)c1ccccc1 [Example 82, 5-(diphenylmethylidene)-2-(1′H,3H-spiro[2-benzofuran-1,4′-piperidin]-1′-yl)-1,3-thiazol-4(5H)-one]	8.4
O=C1N=C(N2CCC3(CC2)OCc2ccccc23)S/C1=C\c1ccccn1 [Example 90, (5Z)-5-(pyridin-2-ylmethylidene)-2-(1′H,3H-spiro[2-benzofuran-1,4′-piperidin]-1′-yl)-1,3-thiazol-4(5H)-one]	7.3
O=C1N=C(N2CCC3(CC2)OCc2ccccc23)S/C1=C(\c1ccc(Cl)cc1)C(F)(F)F [Example 18, (5E)-5-[1-(4-chlorophenyl)-2,2,2-trifluoroethylidene]-2-(1′H,3H-spiro[2-benzofuran-1,4′-piperidin]-1′-yl)-1,3-thiazol-4(5H)-one]	9.1
CC(C)/C(=C1\SC(N2CCC3(CC2)OC(=O)c2ccccc23)=NC1=O)c1ccc(Cl)nc1 [Example 148, 1′-{(5E)-5-[1-(6-chloropyridin-3-yl)-2-methylpropylidene]-4-oxo-4,5-dihydro-1,3-thiazol-2-yl}-3H-spiro[2-benzofuran-1,4′-piperidin]-3-one]	6.8
O=C1N=C(N2CCC3(CC2)OCc2ccccc23)S/C1=C\c1ccncc1 [Example 95, 5-(pyridin-4-ylmethylidene)-2-(1′H,3H-spiro[2-benzofuran-1,4′-piperidin]-1′-yl)-1,3-thiazol-4(5H)-one]	7.1
CC(C)/C(=C1\SC(N2CCC3(CC2)OCc2ccccc23)=NC1=O)c1ccc(Cl)cc1 [Example 154, (5E)-5-[1-(4-chlorophenyl)-2-methylpropylidene]-2-(1′H,3H-spiro[2-benzofuran-1,4′-piperidin]-1′-yl)-1,3-thiazol-4(5H)-one]	7.8

Same assay, conditions: membranes of HEK293 cells transiently transfected with human V1a receptor, Ki by Cheng-Prussoff, read-out: pKi hV1a (converted)

Structure (SMILES)	Ki [nM]
NCC(=C1SC(N2CCC3(CC2)OCc2ccccc23)=NC1=O)c1ccccc1 (racemic) [Example 160, (5E/Z)-5-(2-amino-1-phenylethylidene)-2-(1′H,3H-spiro[2-benzofuran-1,4′-piperidin]-1′-yl)-1,3-thiazol-4(5H)-one trifluoroacetate]	5.01
